From PubChem BioAssay (NCI)
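Five concentrations, 48 hours, 96-well plates. Here, GI50 denotes the concentration required for 50% inhibition of growth. At the TGI there is no net growth.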

Tests used:
Assay in all cases: NCI-60 cell line screen, 48 h
SF-268 CNS = tested on: SF-268 CNS
SNB-75 CNS = tested on: SNB-75 CNS
MDA-MB-231 breast = tested on: MDA-MB-231 breast
M14 melanoma = tested on: M14 melanoma
EKVX NSCLC = tested on: EKVX NSCLC
MCF7 breast = tested on: MCF7 breast
SK-OV-3 ovarian = tested on: SK-OV-3 ovarian
U251 CNS = tested on: U251 CNS
HCT-116 colon = tested on: HCT-116 colon
OVCAR-5 ovarian = tested on: OVCAR-5 ovarian
PC-3 prostate = tested on: PC-3 prostate
MOLT-4 leukemia = tested on: MOLT-4 leukemia
SK-MEL-5 melanoma = tested on: SK-MEL-5 melanoma
HOP-62 NSCLC = tested on: HOP-62 NSCLC
MDA-MB-435 = tested on: MDA-MB-435
T-47D breast = tested on: T-47D breast
SNB-19 CNS = tested on: SNB-19 CNS
SK-MEL-2 melanoma = tested on: SK-MEL-2 melanoma
HL-60(TB) leukemia = tested on: HL-60(TB) leukemia
OVCAR-8 ovarian = tested on: OVCAR-8 ovarian
HCC-2998 colon = tested on: HCC-2998 colon
ACHN renal = tested on: ACHN renal
A549 NSCLC = tested on: A549 NSCLC
SW-620 colon = tested on: SW-620 colon
BT-549 breast = tested on: BT-549 breast
NCI-H460 lung = tested on: NCI-H460 lung
SR leukemia = tested on: SR leukemia
OVCAR-4 ovarian = tested on: OVCAR-4 ovarian
CAKI-1 renal = tested on: CAKI-1 renal
OVCAR-3 ovarian = tested on: OVCAR-3 ovarian
NCI-H522 lung = tested on: NCI-H522 lung
A498 renal = tested on: A498 renal
LOX IMVI melanoma = tested on: LOX IMVI melanoma
UACC-62 melanoma = tested on: UACC-62 melanoma
KM12 colon = tested on: KM12 colon
HS 578T breast = tested on: HS 578T breast
UACC-257 melanoma = tested on: UACC-257 melanoma
CCRF-CEM leukemia = tested on: CCRF-CEM leukemia
NCI-H23 lung = tested on: NCI-H23 lung
MALME-3M melanoma = tested on: MALME-3M melanoma
RXF 393 renal = tested on: RXF 393 renal
DU-145 prostate = tested on: DU-145 prostate
SN12C renal = tested on: SN12C renal
SF-295 CNS = tested on: SF-295 CNS
TK-10 renal = tested on: TK-10 renal
HOP-92 NSCLC = tested on: HOP-92 NSCLC
COLO 205 colon = tested on: COLO 205 colon
RPMI-8226 leukemia = tested on: RPMI-8226 leukemia
UO-31 renal = tested on: UO-31 renal
SK-MEL-28 melanoma = tested on: SK-MEL-28 melanoma
NCI-H226 lung = tested on: NCI-H226 lung
NCI/ADR-RES ovarian = tested on: NCI/ADR-RES ovarian
786-0 renal = tested on: 786-0 renal
HT29 colon = tested on: HT29 colon
SF-539 CNS = tested on: SF-539 CNS
IGROV1 ovarian = tested on: IGROV1 ovarian

SMILES: Cc1ccc2c(n1)C(=O)C(Cl)=C(Nc1cc(C(F)(F)F)cc(C(F)(F)F)c1)C2=O
- GI50 (SF-268 CNS): 6.38 µM
- TGI (SF-268 CNS): 23.5 µM
- GI50 (SNB-75 CNS): 9.23 µM
- TGI (SNB-75 CNS): 22.6 µM
- GI50 (MDA-MB-231 breast): 3.54 µM
- TGI (MDA-MB-231 breast): 14 µM
- GI50 (M14 melanoma): 4.24 µM
- TGI (M14 melanoma): 17.9 µM
- GI50 (EKVX NSCLC): 2.22 µM
- TGI (EKVX NSCLC): 5.45 µM
- GI50 (MCF7 breast): 2.13 µM
- TGI (MCF7 breast): 5.45 µM
- GI50 (SK-OV-3 ovarian): 13.9 µM
- TGI (SK-OV-3 ovarian): 27.1 µM
- GI50 (U251 CNS): 10.3 µM
- TGI (U251 CNS): 23.5 µM
- GI50 (HCT-116 colon): 1.43 µM
- TGI (HCT-116 colon): 2.94 µM
- GI50 (OVCAR-5 ovarian): 19.4 µM
- TGI (OVCAR-5 ovarian): 38.4 µM
- GI50 (PC-3 prostate): 5.29 µM
- TGI (PC-3 prostate): 20 µM
- GI50 (MOLT-4 leukemia): 0.305 µM
- TGI (MOLT-4 leukemia): 1.05 µM
- GI50 (SK-MEL-5 melanoma): 3.28 µM
- TGI (SK-MEL-5 melanoma): 11.4 µM
- GI50 (HOP-62 NSCLC): 15.9 µM
- TGI (HOP-62 NSCLC): 31.3 µM
- GI50 (MDA-MB-435): 4.67 µM
- TGI (MDA-MB-435): 16.4 µM
- GI50 (T-47D breast): 1.63 µM
- TGI (T-47D breast): 5.18 µM
- GI50 (SNB-19 CNS): 13.8 µM
- TGI (SNB-19 CNS): 40.1 µM
- GI50 (SK-MEL-2 melanoma): 3.96 µM
- TGI (SK-MEL-2 melanoma): 15.6 µM
- GI50 (HL-60(TB) leukemia): 0.547 µM
- TGI (HL-60(TB) leukemia): 2.58 µM
- GI50 (OVCAR-8 ovarian): 4.16 µM
- TGI (OVCAR-8 ovarian): 24.2 µM
- GI50 (HCC-2998 colon): 4.61 µM
- TGI (HCC-2998 colon): 18.2 µM
- GI50 (ACHN renal): 1.92 µM
- TGI (ACHN renal): 3.42 µM
- GI50 (A549 NSCLC): 16.9 µM
- TGI (A549 NSCLC): 38 µM
- GI50 (SW-620 colon): 2.29 µM
- TGI (SW-620 colon): 5.32 µM
- GI50 (BT-549 breast): 1.86 µM
- TGI (BT-549 breast): 6.61 µM
- GI50 (NCI-H460 lung): 13.7 µM
- TGI (NCI-H460 lung): 36.8 µM
- GI50 (SR leukemia): 0.31 µM
- TGI (SR leukemia): 1.98 µM
- GI50 (OVCAR-4 ovarian): 1.44 µM
- TGI (OVCAR-4 ovarian): 2.79 µM
- GI50 (CAKI-1 renal): 1.5 µM
- TGI (CAKI-1 renal): 2.94 µM
- GI50 (OVCAR-3 ovarian): 1.61 µM
- TGI (OVCAR-3 ovarian): 3.02 µM
- GI50 (NCI-H522 lung): 1.95 µM
- TGI (NCI-H522 lung): 5.97 µM
- GI50 (A498 renal): 8.72 µM
- TGI (A498 renal): 22 µM
- GI50 (LOX IMVI melanoma): 1.6 µM
- TGI (LOX IMVI melanoma): 3.49 µM
- GI50 (UACC-62 melanoma): 4.97 µM
- TGI (UACC-62 melanoma): 19.3 µM
- GI50 (KM12 colon): 12.3 µM
- TGI (KM12 colon): 28.9 µM
- GI50 (HS 578T breast): 10.6 µM
- TGI (HS 578T breast): 76.4 µM
- GI50 (UACC-257 melanoma): 1.68 µM
- TGI (UACC-257 melanoma): 3.3 µM
- GI50 (CCRF-CEM leukemia): 0.651 µM
- TGI (CCRF-CEM leukemia): 3.59 µM
- GI50 (NCI-H23 lung): 1.92 µM
- TGI (NCI-H23 lung): 4.94 µM
- GI50 (MALME-3M melanoma): 1.67 µM
- TGI (MALME-3M melanoma): 3.58 µM
- GI50 (RXF 393 renal): 1.46 µM
- TGI (RXF 393 renal): 2.82 µM
- GI50 (DU-145 prostate): 2.6 µM
- TGI (DU-145 prostate): 6.47 µM
- GI50 (SN12C renal): 4.55 µM
- TGI (SN12C renal): > 100 µM
- GI50 (SF-295 CNS): 12.6 µM
- TGI (SF-295 CNS): 25.8 µM
- GI50 (TK-10 renal): 1.88 µM
- TGI (TK-10 renal): 3.31 µM
- GI50 (HOP-92 NSCLC): 1.57 µM
- TGI (HOP-92 NSCLC): 3.51 µM
- GI50 (COLO 205 colon): 1.93 µM
- TGI (COLO 205 colon): 4.31 µM
- GI50 (RPMI-8226 leukemia): 1.58 µM
- TGI (RPMI-8226 leukemia): 5.14 µM
- GI50 (UO-31 renal): 1.41 µM
- TGI (UO-31 renal): 2.83 µM
- GI50 (SK-MEL-28 melanoma): 2.21 µM
- TGI (SK-MEL-28 melanoma): 4.29 µM
- GI50 (NCI-H226 lung): 5.36 µM
- TGI (NCI-H226 lung): 41.5 µM
- GI50 (NCI/ADR-RES ovarian): 2.74 µM
- TGI (NCI/ADR-RES ovarian): 8.6 µM
- GI50 (786-0 renal): 1.72 µM
- TGI (786-0 renal): 3.36 µM
- GI50 (HT29 colon): 2.39 µM
- TGI (HT29 colon): 6.18 µM
- GI50 (SF-539 CNS): 5.4 µM
- TGI (SF-539 CNS): 18.3 µM
- GI50 (IGROV1 ovarian): 3.6 µM
- TGI (IGROV1 ovarian): 14.1 µM
